Experimental data: patent US4604401A, “Antibacterial agents III” (Warner-Lambert Company, priority 1984, dated 1986)
In brackets after ≈: the same amount, converted by molar mass. Where two headings read alike, the source gives them in different places.

Legend:
Assay in all cases: In vitro antibacterial activity, microtitration dilution method (MIC)
Type in all cases: cell-based
[1] = test system: Enterobacter cloacae MA 2646; settings: MA2646, read-out: Minimal Inhibitory Concentration (MIC)
Excerpt: (§1) The compounds of the invention display antibacterial activity when tested by the microtitration dilution method as described in Heifetz, et al, Antimicr. Agents & Chemoth., 6, 124 (1974), which is incorporated herein by reference.
(§2) By use of the above referenced method, the followed minimum inhibitory concentration values (MICs in μg/ml) were obtained for representative compounds of the invention.

Escherichia coli Vogel = settings: read-out: Minimal Inhibitory Concentration (MIC)
Excerpt: as §1, §2

[2] = test system: Klebsiella pneumoniae MGH-2; settings: MGH2, read-out: Minimal Inhibitory Concentration (MIC)
Excerpt: as §1, §2

Proteus rettgeri M 1771 = settings: Providencia rettgeri, M1771, read-out: Minimal Inhibitory Concentration (MIC)
Excerpt: as §1, §2

[3] = test system: Pseudomonas aeruginosa UI-18; settings: UI18, read-out: Minimal Inhibitory Concentration (MIC)
Excerpt: as §1, §2

[4] = test system: Streptococcus pneumoniae SV-1; settings: SV1, read-out: Minimal Inhibitory Concentration (MIC)
Excerpt: as §1, §2

[5] = test system: Streptococcus pyogenes C-203; settings: C203, read-out: Minimal Inhibitory Concentration (MIC)
Excerpt: as §1, §2

[6] = test system: Staphylococcus aureus H 228
Excerpt: (§3) Agents & Chemoth., 6, 124 (1974), which is incorporated herein by reference.

[7] = test system: Staphylococcus aureus UC-76
Excerpt: as §3

[8] = test system: Streptococcus faecalis MGH-2; settings: Enterococcus faecalis
Excerpt: as §3

[9] = H228, Staphylococcus aureus H 228, read-out: Minimal Inhibitory Concentration (MIC)
[10] = Staphylococcus aureus, UC76, read-out: Minimal Inhibitory Concentration (MIC)
[11] = MGH2, Streptococcus faecalis MGH-2, read-out: Minimal Inhibitory Concentration (MIC)

| SMILES | MIC [1] [µg/mL] | MIC (Escherichia coli Vogel) [µg/mL] | MIC [2] [µg/mL] | MIC (Proteus rettgeri M 1771) [µg/mL] | MIC [3] [µg/mL] | MIC [4] [µg/mL] | MIC [5] [µg/mL] | MIC [6, 9] [µg/mL] | MIC [7, 10] [µg/mL] | MIC [8, 11] [µg/mL] | MIC ([6]; Staphylococcus aureus, H228, read-out: Minimal Inhibitory Concentration (MIC)) [µg/mL] | MIC ([7]; UC76, Staphylococcus aureus UC-76, read-out: Minimal Inhibitory Concentration (MIC)) [µg/mL] | MIC ([8]; MGH2, read-out: Minimal Inhibitory Concentration (MIC)) [µg/mL] |
| --- | --- | --- | --- | --- | --- | --- | --- | --- | --- | --- | --- | --- | --- |
| CCNCC1CCN(c2cc3c(cc2F)c(=O)c(C(=O)O)cn3NC)C1 (stereo not shown) [Ex. 1, 7-[3-[(Ethylamino)methyl]-1-pyrrolidinyl]-6-fluoro-1-methylamino-1,4-dihydro-4-oxo-3-quinolinecarboxylic Acid] | 6.3 (≈ 17.4 µM) | 12.5 (≈ 34.5 µM) | 6.3 (≈ 17.4 µM) | 25 (≈ 69 µM) | 25 (≈ 69 µM) | 3.1 (≈ 8.55 µM) | 0.4 (≈ 1.1 µM) | 12.5 (≈ 34.5 µM) | 0.2 (≈ 0.552 µM) | 6.3 (≈ 17.4 µM) | – | – | – |
| CNn1cc(C(=O)O)c(=O)c2cc(F)c(N3CCC(N)C3)c(F)c21 (stereo not shown) [Ex. 2, 7-(3-Amino-1-pyrrolidinyl)-6,8-difluoro-1,4-dihydro-1-methylamino-4-oxo-3-quinolinecarboxylic Acid] | 0.8 (≈ 2.36 µM) | 0.2 (≈ 0.591 µM) | 0.2 (≈ 0.591 µM) | 0.4 (≈ 1.18 µM) | 0.2 (≈ 0.591 µM) | 6.3 (≈ 18.6 µM) | 0.8 (≈ 2.36 µM) | – | – | 12.5 (≈ 36.9 µM) | 3.1 (≈ 9.16 µM) | 0.4 (≈ 1.18 µM) | – |
| CCNCC1CCN(c2c(F)cc3c(=O)c(C(=O)O)cn(NC)c3c2F)C1 (stereo not shown) [Ex. 3, 7-[3-[(Ethylamino)methyl]-1-pyrrolidinyl]-6,8-difluoro-1,4-dihydro-1-methylamino-4-oxo-3-quinolinecarboxylic acid] | 0.2 (≈ 0.526 µM) | 0.2 (≈ 0.526 µM) | 0.2 (≈ 0.526 µM) | 1.6 (≈ 4.21 µM) | 0.8 (≈ 2.1 µM) | 0.1 (≈ 0.263 µM) | 0.2 (≈ 0.526 µM) | 0.4 (≈ 1.05 µM) | 0.2 (≈ 0.526 µM) | 0.4 (≈ 1.05 µM) | – | – | – |
| CNn1cc(C(=O)O)c(=O)c2cc(F)c(N3CCC(CN)C3)c(F)c21 (stereo not shown) [Ex. 4, 7-[3-(Aminomethyl)-1-pyrrolidinyl]-6,8-difluoro-1,4-dihydro-1-methylamino-4-oxo-3-quinolinecarboxylic acid] | 1.6 (≈ 4.54 µM) | 1.6 (≈ 4.54 µM) | 1.6 (≈ 4.54 µM) | 1.6 (≈ 4.54 µM) | 1.6 (≈ 4.54 µM) | 0.8 (≈ 2.27 µM) | 0.2 (≈ 0.568 µM) | 1.6 (≈ 4.54 µM) | 0.2 (≈ 0.568 µM) | – | – | – | 0.8 (≈ 2.27 µM) |
